Measurements taken from patent US10336702B2, “Pharmaceutically active compounds” (BERGENBIO ASA, priority 2015, dated 2019).

Tests used:
Akt1 = molecular target: T1, Akt1 (Homo sapiens, UniProt P31749); assay: Akt activation assay (PDK1-mediated activation, LANCE Ultra crosstide TR-FRET), Akt1; type: biochemical; details: read-out: Biological Assay 1 IC50 (nM) Akt1
T1 construct: unspecified tag, removed (detagged) (cleaved yes); purchased SignalChem and Proteros (Akt1); Merck Millipore (PDK1) 14-452 (PDK1); none given for Akt1
How it was run: (§1)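 This TR-FRET readout (Eu-anti-phospho-crosstide antibody, 665/615 nm) measured PDK1-driven activation of Akt. Compound was first preincubated with each Akt isoform: Akt1 5 nM; Akt2 15 nM SignalChem or 5 nM Proteros; Akt3 3 nM SignalChem or 5 nM Proteros. Reactions then ran 30 min with 5 nM PDK1, lipid vesicles containing 0.55 µM PtdIns(3,4,5)P3, 100 µM ATP and 100 nM crosstide at pH 7.5, and IC50 came from a 4-parameter equation.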

Akt2 = molecular target: T2, Akt2 (Homo sapiens, UniProt P31751); assay: Akt activation assay (PDK1-mediated activation, LANCE Ultra crosstide TR-FRET), Akt2; type: biochemical; details: read-out: Biological Assay 1 IC50 (nM) Akt2
T2 construct: unspecified tag, removed (detagged) (cleaved yes); purchased SignalChem and Proteros (Akt2); Merck Millipore (PDK1) 14-452 (PDK1); none given for Akt2
How it was run: as §1

Akt3 = molecular target: T3, Akt3 (Homo sapiens, UniProt Q9Y243); assay: Akt activation assay (PDK1-mediated activation, LANCE Ultra crosstide TR-FRET), Akt3; type: biochemical; details: read-out: Biological Assay 1 IC50 (nM) Akt3
T3 construct: unspecified tag, removed (detagged) (cleaved yes); purchased SignalChem and Proteros (Akt3); Merck Millipore (PDK1) 14-452 (PDK1); none given for Akt3
How it was run: as §1

p-Akt1 in LNCaP cells = molecular target: T4, p-Akt1 in LNCaP cells (Homo sapiens, UniProt P31749); assay: Phospho-Akt cellular SureFire assay, p-Akt1 in LNCaP cells; type: cell-based; details: read-out: Biological Assay 2 IC50 (nM) Akt1 LNCaP
T4 construct: SureFire assays to detect cellular p-Akt1, p-Akt2 and p-Akt3 levels in WM115 cells (Akt2/3) and LNCaP cells (Akt1); endogenous in cells; host or cells: LNCaP (ECACC 89110211)
How it was run: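 Phospho-Thr308 Akt1 detected by AlphaScreen SureFire proximity beads in LNCaP lysates after 15 min compound treatment at 37 °C in 0.1% FBS medium, unstimulated, 0.3% DMSO. Cells plated at 5×10^4/well overnight; IC50 from a 4-parameter equation.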

p-Akt2 in WM115 cells = molecular target: T5, p-Akt2 in WM115 cells (Homo sapiens, UniProt P31751); assay: Phospho-Akt cellular SureFire assay, p-Akt2 in WM115 cells; type: cell-based; details: insulin stimulated, read-out: Biological Assay 2 IC50 (nM) Akt2 WM115
T5 construct: SureFire assays to detect cellular p-Akt1, p-Akt2 and p-Akt3 levels in WM115 cells (Akt2/3) and LNCaP cells (Akt1); endogenous in cells; host or cells: WM115 (ECACC 91061232), insulin-stimulated
How it was run: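 Readout is a bead-proximity SureFire assay pairing a pThr308 Akt antibody with a total Akt2 antibody, lysate and beads incubated 2 h plus 2 h at room temperature in the dark. Before lysis, serum-starved WM115 cells received 100 nM insulin (10 min), then test compound (15 min, 0.3% DMSO); IC50 by 4-parameter equation.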

p-Akt3 in WM115 cells = molecular target: T6, p-Akt3 in WM115 cells (Homo sapiens, UniProt Q9Y243); assay: Phospho-Akt cellular SureFire assay, p-Akt3 in WM115 cells; type: cell-based; details: insulin stimulated, read-out: Biological Assay 2 IC50 (nM) Akt3 WM115
T6 construct: SureFire assays to detect cellular p-Akt1, p-Akt2 and p-Akt3 levels in WM115 cells (Akt2/3) and LNCaP cells (Akt1); endogenous in cells; host or cells: WM115 (ECACC 91061232), insulin-stimulated
How it was run: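 pThr308-Akt3 in lysates was quantified by bead-proximity SureFire detection, pairing a phospho-specific antibody with a total Akt3 antibody. Before lysis, WM115 cells in 0.1% FBS medium were treated for 15 min at 37 °C with compound (final DMSO 0.3%), following a 10 min stimulation with 100 nM insulin. IC50 was obtained by 4-parameter fitting.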

T4 sequence (P31749 whole entry): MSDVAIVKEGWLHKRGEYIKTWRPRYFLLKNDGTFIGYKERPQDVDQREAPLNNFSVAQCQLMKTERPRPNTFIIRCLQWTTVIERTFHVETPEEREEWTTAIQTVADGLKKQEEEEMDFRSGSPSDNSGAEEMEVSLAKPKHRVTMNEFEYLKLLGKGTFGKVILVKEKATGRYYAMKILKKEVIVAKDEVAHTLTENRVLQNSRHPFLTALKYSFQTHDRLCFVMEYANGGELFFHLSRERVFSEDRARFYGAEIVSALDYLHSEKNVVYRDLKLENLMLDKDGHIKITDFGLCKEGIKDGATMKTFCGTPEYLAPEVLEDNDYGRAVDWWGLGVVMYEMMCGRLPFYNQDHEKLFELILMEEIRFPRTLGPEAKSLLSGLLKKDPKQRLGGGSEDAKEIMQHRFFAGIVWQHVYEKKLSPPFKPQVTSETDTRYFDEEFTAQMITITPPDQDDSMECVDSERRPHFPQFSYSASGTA
T1 sequence (P31749 whole entry): as above
T5 sequence (P31751 whole entry): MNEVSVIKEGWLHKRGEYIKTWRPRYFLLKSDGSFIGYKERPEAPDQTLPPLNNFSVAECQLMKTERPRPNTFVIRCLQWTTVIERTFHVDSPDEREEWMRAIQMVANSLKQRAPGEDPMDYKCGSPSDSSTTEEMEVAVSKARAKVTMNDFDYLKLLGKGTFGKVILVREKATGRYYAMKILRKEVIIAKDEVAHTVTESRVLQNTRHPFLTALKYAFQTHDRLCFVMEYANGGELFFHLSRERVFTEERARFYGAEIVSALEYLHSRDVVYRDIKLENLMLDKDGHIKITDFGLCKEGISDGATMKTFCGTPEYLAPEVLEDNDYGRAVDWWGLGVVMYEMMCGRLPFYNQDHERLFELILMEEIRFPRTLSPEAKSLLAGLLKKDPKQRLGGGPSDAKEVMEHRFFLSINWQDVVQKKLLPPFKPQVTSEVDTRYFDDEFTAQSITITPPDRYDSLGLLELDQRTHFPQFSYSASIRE
T2 sequence (P31751 whole entry): as above
T6 sequence (Q9Y243 whole entry): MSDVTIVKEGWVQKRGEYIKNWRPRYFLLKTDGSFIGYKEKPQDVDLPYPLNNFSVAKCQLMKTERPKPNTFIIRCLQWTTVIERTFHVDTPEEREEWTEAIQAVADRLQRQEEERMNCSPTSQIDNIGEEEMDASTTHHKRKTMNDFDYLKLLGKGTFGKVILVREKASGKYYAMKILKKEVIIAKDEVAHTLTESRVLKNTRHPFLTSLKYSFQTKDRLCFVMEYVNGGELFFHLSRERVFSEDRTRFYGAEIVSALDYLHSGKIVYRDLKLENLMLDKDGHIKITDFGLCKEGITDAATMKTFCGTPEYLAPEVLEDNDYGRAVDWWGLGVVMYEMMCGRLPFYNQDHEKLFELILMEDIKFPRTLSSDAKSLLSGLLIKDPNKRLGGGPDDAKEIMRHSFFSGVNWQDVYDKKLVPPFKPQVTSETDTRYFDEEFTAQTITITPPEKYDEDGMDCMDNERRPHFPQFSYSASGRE
T3 sequence (Q9Y243 whole entry): as above

SMILES	IC50 (Akt1) [nM]	IC50 (Akt2) [nM]	IC50 (Akt3) [nM]	IC50 (p-Akt1 in LNCaP cells) [nM]	IC50 (p-Akt2 in WM115 cells) [nM]	IC50 (p-Akt3 in WM115 cells) [nM]
CC(=O)N(C)[C@H]1CC[C@H](CC(=O)Nc2cnc(-c3ccc(C(C)(C)N)cc3)c(-c3ccccc3F)c2)CC1 [Example 9, N-(6-(4-(2-aminopropan-2-yl)phenyl)-5-(2-fluorophenyl)pyridin-3-yl)-2-(trans-4-(N-methylacetamido)cyclohexyl)acetamide]	> 30000	2500	150	> 30000	3500	110
CC(=O)N(C)[C@H]1CC[C@H](CC(=O)Nc2cnc(-c3ccc(C4(N)CCC4)cc3)c(-c3ccccc3)c2)CC1 [Example 10, N-(6-(4-(1-aminocyclobutyl)phenyl)-5-phenylpyridin-3-yl)-2-(trans-4-(N-methylacetamido)cyclohexyl)acetamide]	6200	260	30	6700	970	39
CC(=O)N[C@H]1CC[C@H](CC(=O)Nc2cnc(-c3ccc([C@]4(N)C[C@H](F)C4)cc3)c(-c3ccccc3)c2)CC1 [Example 15, 2-(trans-4-acetamidocyclohexyl)-N-(6-(4-(trans-1-amino-3-fluorocyclobutyl)phenyl)-5-phenylpyridin-3-yl)acetamide]	7700	580	180	> 22000	1100	21
CC(=O)N(C)[C@H]1CC[C@H](CC(=O)Nc2cnc(-c3ccc(C4(N)CCC4)cc3)c(-c3ccccc3F)c2)CC1 [Example 16, N-(6-(4-(1-aminocyclobutyl)phenyl)-5-(2-fluorophenyl)pyridin-3-yl)-2-(trans-4-(N-methylacetamido)cyclohexyl)acetamide]	7800	380	24	11000	710	45
CN([C@H]1CC[C@H](CC(=O)Nc2cnc(-c3ccc(C4(N)CCC4)cc3)c(-c3ccsc3)c2)CC1)S(C)(=O)=O [Example 17, N-(6-(4-(1-aminocyclobutyl)phenyl)-5-(thiophen-3-yl)pyridin-3-yl)-2-(trans-4-(N-methylmethylsulfonamido)cyclohexyl)acetamide]	> 26000	1200	48	7100	1900	140
CC(=O)N[C@H]1CC[C@H](CC(=O)Nc2cnc(-c3ccc(C4(N)CCC4)cc3)c(-c3ccsc3C)c2)CC1 [Example 18, 2-(trans-4-acetamidocyclohexyl)-N-(6-(4-(1-aminocyclobutyl)phenyl)-5-(2-methylthiophen-3-yl)pyridin-3-yl)acetamide]	> 30000	6900	1300	> 30000	14000	1100
CC(C)(N)c1ccc(-c2ncc(NC(=O)C[C@H]3CC[C@H](N4CCCC4=O)CC3)cc2-c2ccccc2)cc1 [Example 24, N-(6-(4-(2-aminopropan-2-yl)phenyl)-5-phenylpyridin-3-yl)-2-(trans-4-(2-oxopyrrolidin-1-yl)cyclohexyl)acetamide]	> 30000	10000	300	> 18000	6700	170
CC(C)(N)c1ccc(-c2ncc(NC(=O)C[C@H]3CC[C@H](NC(=O)C4CC4)CC3)cc2-c2ccsc2)cc1 [Example 26, N-(trans-4-(2-((6-(4-(2-aminopropan-2-yl)phenyl)-5-(thiophen-3-yl)pyridin-3-yl)amino)-2-oxoethyl)cyclohexyl)cyclopropanecarboxamide]	> 30000	12000	1600	> 16000	9000	380
